Measured values published in US12398110B2, “Second generation inhibitors of mitochondrial permeability transition pore with improved plasma stability” (Oregon Health & Science University, priority 2019, dated 2025).
Where two headings read alike, the source gives them in different places.

Experiments:
Type in all cases: biochemical
[1] = tested on: mtPTP; assay: Ca2+ overload induced mitochondrial swelling in isolated mouse liver mitochondria; details: for mtPTP inhibitory activity (in words): SAR discussion of Table 2
Protocol: We next sought to evaluate the effects of TR001-13 on mtPTP activity in vitro. This was performed on isolated mitochondria. In isolated mitochondria induction of mtPTP opening leads to mitochondrial swelling due to the oncotic pressure gradient created by matrix proteins >1.5 kDa that cannot diffuse through the open pore. In in vitro experiments, where isolated mitochondria are routinely suspended in sucrose-based isosmotic solutions, the change in mitochondrial size can be measured spectrometrically by detecting the decrease in light scattering at 540 nm.
(§1) Isolation of mitochondria. C57BL6/N mouse liver mitochondria were prepared from 2 to 6 month old male mice by standard differential centrifugation. Mice fed ad libitum were euthanized with CO2 followed cervical dislocation, their livers were existed and placed in a glass beaker containing ice-cold isolation buffer (IB: 0.25 m sucrose, 10 mm Tris-HCl, 0.1 mm EGTA-Tris, pH 7.4) supplemented with fatty acid free bovine serum albumin. Livers were then cut into small pieces with scissors, rinsed with ice-cold IB, and passed through a pre-chilled Potter homogenizer with Teflon pestle. The homogenate (˜30 mL per liver) was transferred to centrifuge tubes, and unbroken cells and nuclei were removed by centrifugation at 700 g for 10 min at 4° C. The supernatant containing mitochondria and other organelles was transferred to new tubes and centrifuged at 6000 g for 10 min at 4° C. The resulting supernatant was discarded and mitochondrial pellet was carefully suspended in ice-cold IB and spun at 9500 g for 5 min at 4° C. The pellet was suspended in IB to give a protein concentration of ˜60-80 mg/mL and stored on ice. Experiments were started immediately and completed within 5 h. Protein concentration was determined by the Biuret method.
Assessment of mitochondrial swelling. Changes in mitochondrial volume of isolated mouse liver mitochondria were followed in a 96-well clear assay plate at a final volume of 0.2 mL and 0.25 mg/mL mitochondrial protein. Absorbance was read for 30 min at 540 nm on a Tecan Infinite F200 plate reader. Activity of test compounds was addressed as follows: First, 0.1 mL of sucrose assay buffer (SAB: 0.250 m sucrose, 10 mm MOPS-Tris, 0.01 mm EGTA-Tris, 1.0 mm phosphoric acid-Tris, 10 mm glutamate and 5 mm malate, pH 7.4) supplemented with twice the CaCl2 concentration required to induce mitochondrial swelling (which was determined for each preparation of mitochondria, typically 50 μm) was dispensed to the assay plate. A set of wells also contained 2.0 mm EGTA (to prevent mitochondrial swelling). The test wells contained a range of concentrations (in 1:2 serial dilutions) of the compounds of interest or 2% DMSO. Experiments were started by the addition of 0.1 mL of mitochondrial suspension (0.5 mg/mL mitochondria in SAB without respiratory substrates) to the assay plates. EC50s±SE were determined with OriginPro software by applying Hill1 function fitting algorithm on average concentration response data of n=3-41 independent preparations.

[2] = tested on: inner mitochondrial membrane potential; assay: Rhodamine 123 (Rh123) uptake, mitochondrial membrane potential of isolated mouse liver mitochondria
Text: We next evaluated the mitochondrial toxicity of the new triazole analogs by testing their ability to interfere with accumulation of the membrane-permeant cationic fluorescent dye rhodamine 123 (Rh123). The mitochondrial uptake of positively charged Rh123 is driven by the inside negative IMM potential, which is built by the respiratory chain or maintained by ATP hydrolysis if certain conditions are met. […] It should be noted, however, that toxicity for these compounds only occurs at ˜10-1000-fold higher concentrations compared to mtPTP inhibition, providing a good therapeutic window.
Assessment of mitochondrial membrane potential. Mitochondrial membrane potential—to evaluate toxicity—of isolated mouse liver mitochondria was assessed based on fluorescence quenching of the cationic fluorescent dye Rh123 upon its accumulation into mitochondrial matrix due to inside negative membrane potential. Compounds that interfere with the build-up or maintenance of IMM potential would shift Rh123 fluorescence to higher values compared to DMSO treated samples. Uncoupler FCCP was used to account for nonspecific fluorescence. First, 0.1 mL of SAB was dispensed to a 96-well black assay plate. A set of wells also contained 0.8 μm FCCP (to prevent Rh123 uptake). The test wells contained a range of concentrations (in 1:2 serial dilutions) of the compounds of interest or 2% DMSO. Then, 0.1 mL of 0.5 mg/mL mitochondria in SAB devoid of respiratory substrates but supplemented with 0.8 μm Rh123 were added to all wells of the assay plate. Fluorescence intensity (ex/em 485/535 nm) was read on a Tecan Infinite F200 plate reader for 7 min and value at 5 min was considered for analysis. EC50s±SE were determined with OriginPro software by applying Hill1 function fitting algorithm on average concentration response data of n=3 independent preparations.

[3] = tested on: mtPTP; assay: Ca2+ retention capacity (CRC) of isolated mouse liver mitochondria
Protocol: CRC determines the Ca^2+ threshold required for mtPTP activation; inhibitors of mtPTP are expected to increase the Ca^2+ threshold required for mtPTP induction. Extramitochondrial Ca^2+ changes are detected using the membrane-impermeant Ca^2+ indicator, Calcium Green-5N.
as §1
Assessment of Ca^2+ retention capacity (CRC). CRC of isolated mouse liver mitochondria was assessed as follows: First, 0.1 mL of SAB were dispensed to a 96-well black assay plate in the presence of 2% DMSO (control wells) or varying concentrations of test compounds, in 1:2 serial dilutions. Then, 0.1 mL of 0.5 mg/mL mitochondria in SAB devoid of respiratory substrates, but supplemented with 1 μm Calcium Green-5N were added to all wells of the assay plate. A train of 10 μm CaCl2 pulses was added at 2 min intervals, and fluorescence intensity (ex/em 485/535 nm) was read on Tecan Infinite F200 plate reader.

[4] = Mouse Liver Mitochondria (MLM), comparative examples, read-out: Swelling EC50
[5] = Mouse Liver Mitochondria (MLM), comparative examples, read-out: Rh123 EC50
[6] = Mouse Liver Mitochondria (MLM), comparative examples
[7] = isolated mouse liver mitochondria, average ± SEM, n = 3-41, read-out: Mitochondrial Swelling EC50
[8] = interference with Rh123 uptake to mitochondria, average ± SEM, n = 3, read-out: Rh123 uptake EC50
[9] = compound treated CRC to DMSO treated CRC0 ratio, 1.25 μM, average ± SEM, n = 3-25

| Compound | EC50 [1, 4] [µM] | EC50 [2, 5] [µM] | CRC/CRC0 at 1.25 μM [3, 6] | mtPTP inhibitory activity (in words) [1] | EC50 [1, 7] [µM] | EC50 [2, 8] [µM] | CRC/CRC0 at 1.25 μM [3, 9] |
| --- | --- | --- | --- | --- | --- | --- | --- |
| Cc1ccc(I)cc1NC(=O)c1cn(-c2ccc(F)c(O)c2)nn1 | 0.028 | 14.7 | 8.3 |  |  |  |  |
| Cc1ccc(Cl)cc1NC(=O)c1cn(-c2cc(O)cc(C(F)(F)F)c2)nn1 [drawing 71] | 0.534 | 6 | 3 |  |  |  |  |
| CCCOc1ccc(Cl)cc1NC(=O)c1cn(-c2ccc(F)c(O)c2)nn1 | 8.7 | > 40 | 1.8 |  |  |  |  |
| Cc1ccc(Cl)cc1NC(=O)c1cn(-c2ccc(Br)c(NS(C)(=O)=O)c2)nn1 | > 20 |  | 1 |  |  |  |  |
| Cc1ccc(Cl)cc1NC(=O)c1cn(-c2ccc(Br)c(O)c2)nn1 [TR009, 1-(4-bromo-3-hydroxyphenyl)-N-(5-chloro-2-methylphenyl)-1H-1,2,3-triazole-4-carboxamide] |  |  |  | decreased activity | 0.475 ± 0.057 | > 40 | 2.4 ± 0.2 |
| Cc1ccc(Cl)cc1NC(=O)c1cn(-c2cccc(O)c2C)nn1 [drawing 68] | 10.6 | > 40 | 1.4 |  |  |  |  |
| Cc1ccc(-n2cc(C(=O)Nc3cc(Cl)ccc3C)nn2)cc1O [TR011, N-(5-chloro-2-methylphenyl)-1-(3-hydroxy-4-methylphenyl)-1H-1,2,3-triazole-4-carboxamide] |  |  |  | inactive | > 20 | > 40 | 1.4 ± 0.1 |
| Cc1ccc(Cl)cc1NC(=O)c1cn(-c2cccc(O)c2Cl)nn1 [drawing 70] | > 20 | > 40 | 1.2 |  |  |  |  |
| Cc1ccc(Cl)cc1NC(=O)c1cn(-c2ccc(F)c(O)c2)nn1 [drawing 46] | 0.025 | > 100 | 7.4 |  |  |  |  |
| Cc1ccc(Cl)cc1NC(=O)c1cn(-c2ccc(F)c(OC(=O)N(C)C)c2)nn1 | 0.153 |  | 3.9 |  |  |  |  |
| Cc1ccc(Cl)cc1NC(=O)c1cn(-c2cc(O)cc(C(F)(F)F)c2)nn1 [TR013, N-(5-chloro-2-methylphenyl)-1-(3-(trifluoromethyl)-5-hydroxyphenyl)-1H-1,2,3-triazole-4-carboxamide] |  |  |  | significantly reduced activity | 0.534 ± 0.047 | 6.2 ± 1.2 | 2.9 ± 0.1 |
| Cc1ccc(Cl)cc1NC(=O)c1cc(-c2ccc(F)c(O)c2)on1 [drawing 45] | 0.002 | > 100 | 13.5 |  |  |  |  |
| Cc1ccc(Cl)cc1NC(=O)c1cn(-c2cc(O)cc(F)c2)nn1 [TR002, N-(5-chloro-2-methylphenyl)-1-(3-fluoro-5-hydroxyphenyl)-1H-1,2,3-triazole-4-carboxamide] |  |  |  | most potent analog | 0.01 ± 0.002 | 14.1 ± 1.2 | 12.6 ± 0.6 |
| Cc1ccc(Cl)cc1NC(=O)c1cn(-c2cc(O)ccc2F)nn1 [TR004, N-(5-chloro-2-methylphenyl)-1-(2-fluoro-5-hydroxyphenyl)-1H-1,2,3-triazole-4-carboxamide] |  |  |  | inactive | > 20 | > 40 | 1.3 ± 0.03 |
| CC(=O)Oc1cc(-n2cc(C(=O)Nc3cc(Cl)ccc3C)nn2)ccc1F | 0.083 | > 40 | 4.5 |  |  |  |  |
| Cc1ccc(Cl)cc1NC(=O)c1cn(-c2ccc(Br)c(O)c2)nn1 [drawing 60] | 0.475 | > 40 | 2.4 |  |  |  |  |

| Compound | EC50 [1, 4] [µM] | EC50 [2, 5] [µM] | CRC/CRC0 at 1.25 μM [3, 6] | mtPTP inhibitory activity (in words) [1] | EC50 [1, 7] [µM] | EC50 [2, 8] [µM] | CRC/CRC0 at 1.25 μM [3, 9] |
| --- | --- | --- | --- | --- | --- | --- | --- |
| Cc1ccc(-n2cc(C(=O)Nc3cc(Cl)ccc3C)nn2)cc1O [drawing 67] | > 20 | > 40 | 1.4 |  |  |  |  |
| Cc1ccc(Cl)cc1NC(=O)c1cn(-c2ccc(C)c(O)c2Cl)nn1 [TR010, N-(5-chloro-2-methylphenyl)-1-(2-chloro-3-hydroxy-4-methylphenyl)-1H-1,2,3-triazole-4-carboxamide] |  |  |  |  | > 20 | > 40 | 1.1 ± 0.1 |
| C#Cc1ccc(C)c(NC(=O)c2cn(-c3ccc(F)c(O)c3)nn2)c1 | 7 | > 40 | 1.3 |  |  |  |  |
| Cc1ccc(Cl)cc1NC(=O)c1cn(-c2ccc(Cl)c(O)c2)nn1 [TR006, N-(5-chloro-2-methylphenyl)-1-(4-chloro-3-hydroxyphenyl)-1H-1,2,3-triazole-4-carboxamide] |  |  |  | decreased activity | 0.135 ± 0.015 | > 40 | 3.9 ± 0.3 |
| Cc1ccc(Cl)cc1NC(=O)c1cn(-c2cccc(O)c2F)nn1 [drawing 51] | 0.152 | 29 | 7.8 |  |  |  |  |
| Cc1ccc(Cl)cc1NC(=O)c1cn(-c2ccc(F)c(O)c2F)nn1 [drawing 58] | 0.782 | > 40 | 2.6 |  |  |  |  |
| CC(=O)c1ccc(C)c(NC(=O)c2cn(-c3ccc(F)c(O)c3)nn2)c1 | 5.2 | > 40 | 1.4 |  |  |  |  |
| Cc1ccc(Cl)cc1NC(=O)c1cn(-c2cc(F)cc(OC(=O)N(C)C)c2)nn1 | > 20 |  | 1.5 |  |  |  |  |
| Cc1c(Cl)cccc1NC(=O)c1cn(-c2ccc(F)c(O)c2)nn1 | 0.0051 | > 40 | 5.4 |  |  |  |  |
| CC(=O)Nc1cc(-n2cc(C(=O)Nc3cc(Cl)ccc3C)nn2)ccc1F | > 20 |  | 1 |  |  |  |  |
| C#Cc1ccc(C(C)=O)cc1NC(=O)c1cn(-c2ccc(F)c(O)c2)nn1 | > 20 |  |  |  |  |  |  |
| Cc1ccc(Cl)cc1NC(=O)c1cn(-c2ccc(F)c(NS(=O)(=O)C(F)(F)F)c2)nn1 | > 20 |  | 1 |  |  |  |  |
| Cc1ccc(Cl)cc1NC(=O)c1cn(-c2ccc(F)c(N)c2)nn1 | > 20 |  | 1 |  |  |  |  |
| Cc1ccc(Cl)cc1NC(=O)c1cn(-c2ccc3[nH]c(=O)[nH]c3c2)nn1 | > 20 |  | 1 |  |  |  |  |
| Cc1ccc(Cl)cc1NC(=O)c1cn(-c2ccc(F)c(NC(=O)C(F)(F)F)c2)nn1 | > 20 |  | 1 |  |  |  |  |
| Cc1ccc(Cl)cc1NC(=O)c1cn(-c2cccc(C(=O)O)c2)nn1 | > 20 |  | 1 |  |  |  |  |
